Measured values reported in US20220331303A1, “USE OF AN OREXIN 2 RECEPTOR AGONIST FOR THE TREATMENT OF EXCESSIVE SLEEPINESS” (Takeda Pharmaceutical Company Limited, priority 2019, published 2022).

How the values were obtained:
Type in all cases: in vivo, human
patients with NT2 [1] = test: MWT in patients with NT2 (Cohorts C1, C2)
Method: (§1) The purpose of the study was to evaluate the safety, tolerability, pharmacokinetics and pharmacodynamics of Compound A after multiple days of IV administration in patients with NT2. NT2 patients were evaluated in Cohort C1 and C2 (Table 30). Compound A or placebo were administered via IV infusion over 9 hours once daily for 7 days. A total of 14 patients with NT2 were treated with Compound A or placebo (5, 4, and 5 subjects in the placebo, Compound A 44 mg, and Compound A 112 mg groups, respectively). In this part, potential efficacy of Compound A was evaluated with MWT, ESS, KSS, night-time PSG (NPSG), and PGI-C as an exploratory PD assessment.
An overview of study schedule and PD testing in NT2 Patients is illustrated in FIG. 9. After screening, patients eligible for these parts had to discontinue any medication for narcolepsy including medications used for EDS or cataplexy. The medications had to be stopped for a minimum of 7 days or at least 5 half-lives of each medication, whichever was longer, before the first day of dosing (Day 1). In all cohorts of these parts, subjects underwent NPSG on Day −2 and baseline MWT sessions 4 times on Day −1 (at around 10:00, 12:00, 14:00, and 16:00). Study drug dosing via IV infusion was started at around 08:00 on Days 1-7. MWT was conducted on Day 1 at around 10:00, 12:00, 14:00, and 16:00. Subjects were allowed to take a nap on the days with no MWT assessment. At night of Day 6, the subjects underwent NPSG once again to evaluate the effect of multiple daytime dosing on night-time sleep structure. On Day 7, the subjects underwent MWT at the same hours as on Day −1. The subjects were discharged from the study site on Day 8.
The MWT is a validated objective measure that evaluates a person's ability to remain awake under soporific conditions for a defined period of time. As there is no biological measure of wakefulness, this was measured indirectly by the inability or delayed tendency to fall asleep. This tendency to fall asleep was measured via EEG-derived sleep latency in MWT.
On Day −1, Day 1 and Day 7, 40-minute session (1 session) of MWTs was performed 4 times (approximately at 10:00, 12:00, 14:00, and 16:00) per day. Sleep latency of each session was recorded. Subjects were required to stay awake during an interval between sessions.

patients with NT2 [2] = test: Epworth Sleepiness Scale (ESS) in patients with NT2; design: scale not given here; conditions: Day 7
Method: as §1

patients with NT2 [3] = test: Safety/tolerability of multiple IV doses in patients with NT2
Method: as §1

[4] = tested on: subjects with obstructive sleep apnea; test: KSS in subjects with OSA experiencing EDS despite CPAP
Method: (§2) On Day 1 of Treatment Period 1, all eligible subjects were randomized and received the first dose of study drug. Compound A or placebo was administered as a single 9-hour IV infusion commencing at approximately 08:00. On each dosing day (Study Days 1, 3, and 5), 40-minute MWT sessions were performed at 2, 4, 6, and 8 hours after the start of the infusion. There was a minimum 24-hour washout interval between the end of the infusion and the commencement of treatment in subsequent treatment periods to allow for complete elimination of the preceding treatment effect. The KSS and PVT were collected per the Schedule of Study Procedures. Blood samples for determination of Compound A plasma concentrations were collected predose and at specified time points postdose, Safety assessments were recorded. During the study, AEs were recorded, clinical laboratory tests, vital signs, and safety ECGs were obtained. Study Days 2, 4, and 6 were washout days. Subjects were discharged from the unit following completion of study exit procedures in the afternoon of Study Day 6 (Day 2 of Treatment Period 3). Subjects were contacted by telephone approximately 7 days (±2 days) following unit discharge for a safety check.

[5] = tested on: subjects with obstructive sleep apnea; test: Safety/tolerability of single dose in subjects with OSA; conditions: single doses 44 mg and 112 mg, infusion over 9 hours, OSA patients
Text: The purpose of the study was to evaluate the pharmacokinetics (PK), pharmacodynamics (PD), safety and tolerability of a single intravenous (IV) dose of Compound A in adults who have been diagnosed with obstructive sleep apnea (OSA) and who are experiencing excessive daytime sleepiness (EDS) despite adequate use of CPAP. Twenty-five patients were randomized, and 23 patients completed the study. All patients at entry were having EDS despite being adequately controlled by CPAP for their sleep apnea.
as §2, with “The KSS and PVT were collected per the Schedule of Study Procedures.” left out, “Study Days 2, 4, and 6 were washout days. Subjects were discharged from the unit following completion of study exit procedures in the afternoon of Study Day 6 (Day 2 of Treatment Period 3). Subjects were contacted by telephone approximately 7 days (±2 days) following unit discharge for a safety check.” left out

[6] = multiple IV administrations of up to 112 mg, NT2 patients

COC(=O)N1CCC[C@H](NS(C)(=O)=O)[C@@H]1CO[C@H]1CC[C@@H](c2ccccc2)CC1 [Compound A, methyl (2R,3S)-3-((methylsulfonyl)amino)-2-(((cis-4-phenylcyclohexyl)oxy)methyl)piperidine-1-carboxylate]
Mean change from baseline in average sleep latency in MWT (patients with NT2 [1]; Compound A 44 mg, Day 1): 23.88 min | Mean sleep latency in MWT (patients with NT2 [1]; Compound A 44 mg, Day 1): 33.03 min | Mean change from baseline in average sleep latency in MWT (patients with NT2 [1]; Compound A 44 mg, Day 7): 25.79 min | Mean sleep latency in MWT (patients with NT2 [1]; Compound A 44 mg, Day 7): 34.47 min | Maximum sleep latency achieved in MWT (patients with NT2 [1]; Compound A 44 mg, at 2 and 8 hours on Day 1 and at 4 and 8 hours on Day 7): 40 min | Mean change from baseline in average sleep latency in MWT (patients with NT2 [1]; Compound A 112 mg, Day 1): 31.15 min | Mean sleep latency in MWT (patients with NT2 [1]; Compound A 112 mg, Day 1): 38.48 min | Mean change from baseline in average sleep latency in MWT (patients with NT2 [1]; Compound A 112 mg, Day 7): 28.28 min | Mean sleep latency in MWT (patients with NT2 [1]; Compound A 112 mg, Day 7): 35.60 min | Maximum sleep latency achieved in MWT (patients with NT2 [1]; Compound A 112 mg, at 2, 4, and 8 hours both on Day 1 and Day 7): 40 min | ESS Change from Baseline Mean (patients with NT2 [2]; Compound A 44 mg): −3.8 | ESS Change from Baseline Median (patients with NT2 [2]; Compound A 44 mg): −3.5 | ESS Observed Value Mean (patients with NT2 [2]; Compound A 44 mg): 13.3 | ESS Observed Value Median (patients with NT2 [2]; Compound A 44 mg): 14.0 | Mean ESS score (patients with NT2 [2]; Compound A 44 mg): 13.3 | Mean change from baseline in ESS (patients with NT2 [2]; Compound A 44 mg): −3.8 | ESS Change from Baseline Mean (patients with NT2 [2]; Compound A 112 mg): −12.2 | ESS Change from Baseline Median (patients with NT2 [2]; Compound A 112 mg): −13.0 | ESS Observed Value Mean (patients with NT2 [2]; Compound A 112 mg): 6.0 | ESS Observed Value Median (patients with NT2 [2]; Compound A 112 mg): 4.0 | Mean ESS score (patients with NT2 [2]; Compound A 112 mg): 6.0 | Mean change from baseline in ESS (patients with NT2 [2]; Compound A 112 mg): −12.2 | Number of TEAE related to BP (blood pressure increased) (patients with NT2 [3]; Compound A 112 mg group, mild intensity): 1 | SAE / TEAE leading to study drug discontinuation (patients with NT2 [3]; [6]): no SAE, and no TEAE leading to study drug discontinuation | Safety and tolerability (patients with NT2 [3]; [6]): safe and well tolerated | Mean placebo-adjusted decrease in KSS ([4]; Compound A 44 mg): −1.6 | Mean placebo-adjusted decrease in KSS ([4]; Compound A 112 mg): −2.4 | Safety and tolerability [5]: safe and well tolerated
